Assay results from patent US11191746B2, “Composition for inhibiting a growth of cancer stem cells comprising ciclesonide” (JEJU NATIONAL UNIVERSITY INDUSTRY-ACADEMIC COOPERATION …, priority 2016, dated 2021).

What was measured:
[1] = system: MDA-MB-231 cells; assay: Breast cancer cell proliferation assay (MTS); assay type: cell-based, human; details: MDA-MB-231, 48 hours after treatment
Protocol: The proliferation rates of MCF-7 cells and MDA-MB-231 cells were measured using a CellTiter 96® aqueous one solution cell proliferation kit. The MCF-7 cells or the MDA-MB-231 cells were cultured in a 96-well plate for 48 hours in the presence of ciclesonide at concentrations of 0 μM, 5 μM, 10 μM, 20 μM, 40 μM, and 80 μM. In accordance with the manufacturer's protocol, absorbance at 490 nm was determined using a 96-well plate reader (Dynex Revelation, Dynex Ltd., Billingshurst, UK). Respective data was determined by measuring three sets.

[2] = system: A549 cells; assay: Apoptosis analysis by fluorescence staining (Hoechst 33258); assay type: cell-based, human; details: A549, 30 μM, 24 hours
Protocol: MDA-MB-231 cells were treated with 20 μM ciclesonide or A549 cells were treated with 30 μM ciclesonide, for 24 hours and the cells were incubated in 10 mg/ml of a Hoechst 33258 solution at 37° C. for 30 minutes. Subsequently, the cells were observed using a fluorescence microscope.

[3] = system: MCF-7 cell-derived mammospheres; assay: Mammosphere formation; assay type: cell-based, human
Protocol: (§1) Human breast cancer cells, MCF-7, were obtained from American Type Culture Collection (ATCC; Manassas, Va., USA). MCF-7 cells and MDA-MB-231 cells were cultured in Dulbecco's Modified Essential Medium (DMEM; Hyclone, Logan, Utah, USA) containing 10% fetal bovine serum (FBS; Hyclone), 100 U/ml of penicillin, and 100 μg/ml of streptomycin (Hyclone). The MCF-7 cells were maintained in a humidified incubator containing 5% CO2 at 37° C. The cells were plated in 10 cm culture dishes at a density of 1×10^6 cells. To establish primary mammospheres, single cell-suspended MCF-7 cells were inoculated into ultra-low attachment 6-well plates containing 2 ml of complete MammoCult™ medium (StemCell Technologies, Vancouver, BC, Canada) at a density of 3.5 to 4×10^4 cells/well. The complete MammoCult™ medium was supplemented with 4 μg/ml of heparin, 0.48 μg/ml of hydrocortisone, 100 U/ml of penicillin, and 100 μg/ml of streptomycin. The cells were incubated in a 5% CO2 incubator at 37° C. for 7 days.
(§2) On day 10 of culture, cell culture plates were placed on a scanner (Epson Perfection V700 PHOTO, Epson Korea, Co, Seoul, Korea) to obtain 8-bit gray scale images of mammospheres. The images were acquired using a NICE software program downloaded from ftp://ftp.nist.gov/pub/physics/mlclarke/NICE at a low resolution of 300 dpi. For counting, a desired number of rows and columns (e.g., 2×3 for a 6-well plate) were selected to generate ROIs and after selecting the elliptical setting of the NICE program, the individual ROIs were defined by adjusting the movement and size of the provided ROI shapes. The background signals of the images were negated using a threshold algorithm, and the selected images were automatically counted. To analyze the formation of mammospheres, mammosphere formation efficiency (MFE, %) was determined by the following equation: MFE (%)=the number of mammospheres per well/a total number of plated cells per well×100.

[4] = system: MDA-MB-231 cell-derived mammospheres; assay: Mammosphere formation; assay type: cell-based, human
Protocol: as §1, §2

[5] = system: STAT3; assay: Western blotting of mammosphere nuclear proteins; assay type: cell-based, human; details: MCF-7 cells-derived mammospheres
Protocol: Proteins isolated from ciclesonide-treated MCF-7 or MDA-MB-231 mammospheres were separated on 10% SDS-PAGE and transferred to a polyvinylidene difluoride membrane (Millipore, Bedford, Mass., USA). The membrane was blocked in PBS-Tween 20 (0.1%, v/v) containing 5% skimmed milk at room temperature for 30 minutes. The blot was incubated at 4° C. overnight with a blocking solution containing primary antibodies. The primary antibodies used were as follows: Stat3, p65, Lamin B, and phospho-Stat3 (Cell Signaling, Beverly, Mass., USA). β-actin (Santa Cruz Biotechnology) was used as a loading control. After washing with PBS-Tween 20 (0.1%, v/v), the blot was incubated with horseradish peroxidase-conjugated secondary antibodies, and photosensitized with a chemiluminescence detection kit (Santa Cruz Biotechnology).

[6] = system: IL-6; assay: Human inflammatory cytokine assay (CBA), mammosphere culture solution; assay type: cell-based; details: MDA-MB-231 mammosphere culture solution
Protocol: (§3) Mixed capture beads were vortexed and 50 μl of beads were added to assay tubes. 50 μl of human inflammatory cytokine standard and the cultured tumorsphere solution were added to the assay tubes, and then mixed with a cytokine PE solution. After 3 hours, the mixed solution was washed and analyzed by flow cytometry (Accuri C6, BD, San Diego, Calif., USA).

[7] = system: IL-8; assay: as above; assay type: cell-based; details: MDA-MB-231 mammosphere culture solution
Protocol: as §3

[8] = system: C-myc; assay: Real-time PCR of CSC markers in tumorspheres; assay type: cell-based, human; details: RT-PCR, vs group not treated
Protocol: (§4) The levels of transcripts were measured with a One Step SYBR PrimeScript RT-PCR kit (Takara, Tokyo, Japan) using SYBR green as a double-stranded DNA-specific dye in accordance with the manufacturer's protocol. One-step RT-PCR was performed on 1 μg of total RNA, 10 μl of 2× One Step SYBR RT-PCR Buffer IV, and 1 μl of PrimeScript 1 step Enzyme Mix II using PCR forward and reverse primers of each of CD44, NANOG, OCT4, C-myc, Sox2, Snail, and β-actin at a final volume of 20 μl per reaction.
(§5) The relative expression level of mRNA of the target gene was calculated using a comparative CT method. At least three independent PCR procedures were performed in accordance with statistical analysis. PCR products were normalized with the […] gene as an internal control.

[9] = system: Nanog; assay: Real-time PCR of CSC markers in tumorspheres; assay type: cell-based, human; details: RT-PCR, vs group not treated
Protocol: as §4, §5

[10] = system: Snail; assay: Real-time PCR of CSC markers in tumorspheres; assay type: cell-based, human; details: RT-PCR, vs group not treated
Protocol: as §4, §5

[11] = system: Sox2; assay: Real-time PCR of CSC markers in tumorspheres; assay type: cell-based, human; details: RT-PCR, vs group not treated
Protocol: as §4, §5

[12] = system: tumorspheres; assay: Tumorsphere proliferation (cell counting); assay type: cell-based, human; details: tumorspheres treated 2 days, single cells replated and counted on days 1 to 3
Protocol: FIG. 11B illustrates the effect of ciclesonide on tumorsphere formation wherein ciclesonide inhibits the growth of tumorspheres, tumorspheres having been treated with ciclesonide or DMSO for 2 days were separated into single cells and plated in 6 cm dishes at the same density, 24 hours after plating, the cells were counted, on days 1, 2, and 3, the cells were counted three times, and plotted as mean values, and the data was expressed as the mean±SD for the three independent experimental results. *p<0.05 vs. DMSO-treated control; and […]

[13] = system: IL-8; assay: Human inflammatory cytokine assay (CBA), tumorspheres; assay type: cell-based; details: A549 tumorspheres
Protocol: as §3

Question: How did the “concentration at which growth of the cell line was inhibited in a concentration-dependent manner” value [1] turn out when `CC(C)C(=O)OCC(=O)[C@@]12O[C@H](C3CCCCC3)O[C@@H]1C[C@H]1[C@@H]3CCC4=CC(=O)C=C[C@]4(C)[C@H]3[C@@H](O)C[C@@]12C` [ciclesonide] was run?
Answer: ≥ 10 µM

Question: What about the “formation of apoptotic bodies” value [2] of the same compound?
Answer: apoptotic bodies were formed

Question: And the “growth of breast cancer stem cells” value ([3]; MCF-7 mammospheres, 10 μM)?
Answer: significantly inhibited

Question: And the “size of the mammospheres” value ([3]; MCF-7 primary mammospheres)?
Answer: reduced

Question: What about the “reduction of the number of mammospheres” value ([3]; MCF-7 primary mammospheres, 5 μM or 10 μM, 7 days) of the same compound?
Answer: 90%

Question: And the “growth of breast cancer stem cells” value ([4]; MDA-MB-231 mammospheres, 10 μM)?
Answer: significantly inhibited

Question: And the “size of the mammospheres” value ([4]; MDA-MB-231 primary mammospheres)?
Answer: reduced

Question: And the “reduction of the number of mammospheres” value ([4]; MDA-MB-231 primary mammospheres, 10 μM, 7 days)?
Answer: 90%

Question: What about the “phosphorylation of nuclear STAT3 protein compared to a control” value [5] of the same compound?
Answer: reduced

Question: What about the “production level of secreted IL-6” value [6] of the same compound?
Answer: reduced

Question: What about the “production level of secreted IL-8” value [7] of the same compound?
Answer: reduced

Question: And the “expression of C-myc” value [8]?
Answer: reduced

Question: What about the “expression of Nanog” value [9] of the same compound?
Answer: reduced

Question: And the “expression of Snail” value [10]?
Answer: reduced

Question: What about the “expression of Sox2” value [11] of the same compound?
Answer: reduced

Question: What about the “growth of tumorspheres (number of survived cancer cells)” value [12] of the same compound?
Answer: inhibited

Question: What about the “production level of IL-8” value [13] of the same compound?
Answer: reduced
